Test results: ChEMBL document CHEMBL1201862, “PubChem BioAssay data set” (2004)
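Cells were grown in 96-well plates and exposed to each compound for 48 hours at five concentrations; endpoints were interpolated linearly between bracketing concentrations, or set to the highest concentration if not reached. Abbreviation: GI50, concentration required for 50% inhibition of growth.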 Activity calls are given as the source filed them. Rule as the data show it: active = GI50 up to about 1.1 µM and inactive = higher.

Experiments:
Assay in all cases: growth of human tumour cells (NCI), 48 h
[1] = system: KM12
[2] = system: OVCAR-3
[3] = system: U-251
[4] = system: A549
[5] = system: SK-MEL-2
[6] = system: UO-31
[7] = system: NCI-H23
[8] = system: SF-295
[9] = system: NCI-H460
[10] = system: HOP-92
[11] = system: SW-620
[12] = system: ACHN
[13] = system: MDA-MB-435
[14] = system: MOLT-4
[15] = system: Hs-578T
[16] = system: UACC-257
[17] = system: 786-0
[18] = system: SK-OV-3
[19] = system: A498
[20] = system: EKVX

Row | Compound | GI50 [1] | GI50 [2] | GI50 [3] | GI50 [4] | GI50 [5] | GI50 [6] | GI50 [7] | GI50 [8] | GI50 [9] | GI50 [10] | GI50 [11] | GI50 [12] | GI50 [13] | GI50 [14] | GI50 [15] | GI50 [16] | GI50 [17] | GI50 [18] | GI50 [19] | GI50 [20]
1 | CC1(O)/C(=N/O)CC2CC1C2(C)C (stereo not drawn) | > 100 µM (inactive) | > 100 µM (inactive) | > 100 µM (inactive) | > 100 µM (inactive) | > 100 µM (inactive) | > 100 µM (inactive) | > 100 µM (inactive) | > 100 µM (inactive) | > 100 µM (inactive) | > 100 µM (inactive) | > 100 µM (inactive) | > 100 µM (inactive) | > 100 µM (inactive) | > 100 µM (inactive) | > 100 µM (inactive) | > 100 µM (inactive) | > 100 µM (inactive) | – | – | –
2 | COP(=O)(OC)/C(=C\c1cn(C(c2ccccc2)(c2ccccc2)c2ccccc2)cn1)NC(C)=O | 52.4 µM (inactive) | > 100 µM (inactive) | > 100 µM (inactive) | 53.7 µM (inactive) | – | > 100 µM (inactive) | > 100 µM (inactive) | > 100 µM (inactive) | > 100 µM (inactive) | > 100 µM (inactive) | > 100 µM (inactive) | > 100 µM (inactive) | > 100 µM (inactive) | 34.4 µM (inactive) | > 100 µM (inactive) | 62.5 µM (inactive) | > 100 µM (inactive) | > 100 µM (inactive) | > 100 µM (inactive) | > 100 µM (inactive)
3 | Cc1cc(N(CCC#N)CCC#N)ccc1C(/N=N/c1ccc([N+](=O)[O-])cc1)=N\NC(=O)c1cc(Cl)ccc1C(=O)c1ccccc1 | 9.1 µM (inactive) | 4.86 µM (inactive) | 13.3 µM (inactive) | 15 µM (inactive) | 11.1 µM (inactive) | 10.1 µM (inactive) | 13.3 µM (inactive) | 14.5 µM (inactive) | 6.1 µM (inactive) | – | 8.65 µM (inactive) | 12.2 µM (inactive) | 22.6 µM (inactive) | 4.65 µM (inactive) | 17.4 µM (inactive) | 32.2 µM (inactive) | 7.64 µM (inactive) | 13.5 µM (inactive) | – | 6.11 µM (inactive)
4 | COC(=O)c1ccccc1C#CCCCOS(C)(=O)=O | > 10 µM (inactive) | > 10 µM (inactive) | > 10 µM (inactive) | > 10 µM (inactive) | > 10 µM (inactive) | > 10 µM (inactive) | > 10 µM (inactive) | > 10 µM (inactive) | > 10 µM (inactive) | – | > 10 µM (inactive) | > 10 µM (inactive) | > 10 µM (inactive) | > 10 µM (inactive) | > 10 µM (inactive) | > 10 µM (inactive) | > 10 µM (inactive) | > 10 µM (inactive) | > 10 µM (inactive) | > 10 µM (inactive)
5 | O=S(=O)(c1ccccc1)c1ccc(-c2nc(-c3ccc4c(c3)Sc3ccccc3S4)cs2)cc1 | > 100 µM (inactive) | > 100 µM (inactive) | 27.9 µM (inactive) | > 100 µM (inactive) | – | > 100 µM (inactive) | 11.2 µM (inactive) | 16.5 µM (inactive) | > 100 µM (inactive) | 20.7 µM (inactive) | > 100 µM (inactive) | 38.7 µM (inactive) | > 100 µM (inactive) | 31.6 µM (inactive) | 8.69 µM (inactive) | > 100 µM (inactive) | 17.2 µM (inactive) | 18.9 µM (inactive) | – | 39.8 µM (inactive)
6 | CC(NC(=O)C(C)C(=O)Nc1ccc(C(F)(F)F)cc1)C(N)=O (stereo not drawn) | > 100 µM (inactive) | – | > 100 µM (inactive) | > 100 µM (inactive) | > 100 µM (inactive) | > 100 µM (inactive) | > 100 µM (inactive) | > 100 µM (inactive) | > 100 µM (inactive) | > 100 µM (inactive) | > 100 µM (inactive) | > 100 µM (inactive) | > 100 µM (inactive) | > 10 µM (inactive) | > 100 µM (inactive) | > 100 µM (inactive) | > 100 µM (inactive) | > 100 µM (inactive) | – | > 100 µM (inactive)
7 | COc1ccc(/C=c2\s/c(=C3/SC(=S)N(c4ccccc4)C3=O)n(-c3ccccc3)c2=O)cc1 | > 100 µM (inactive) | > 100 µM (inactive) | 19.6 µM (inactive) | > 100 µM (inactive) | – | 73.1 µM (inactive) | 26.9 µM (inactive) | 35 µM (inactive) | 12.8 µM (inactive) | 21.6 µM (inactive) | > 100 µM (inactive) | 13.6 µM (inactive) | > 100 µM (inactive) | 29.8 µM (inactive) | 18.9 µM (inactive) | – | 43.6 µM (inactive) | 12.1 µM (inactive) | 36.6 µM (inactive) | > 100 µM (inactive)
8 | C[C@]12CC[C@H]3[C@@H](CCC4=CC(=O)CC[C@@]43C)[C@]1(O)CC[C@]2(O)C(=O)CO | > 100 µM (inactive) | > 100 µM (inactive) | > 100 µM (inactive) | > 100 µM (inactive) | > 100 µM (inactive) | > 100 µM (inactive) | > 100 µM (inactive) | > 100 µM (inactive) | > 100 µM (inactive) | – | > 100 µM (inactive) | > 100 µM (inactive) | > 100 µM (inactive) | > 100 µM (inactive) | > 100 µM (inactive) | > 100 µM (inactive) | > 100 µM (inactive) | > 100 µM (inactive) | > 100 µM (inactive) | > 100 µM (inactive)
9 | O=C1c2ccccc2CC12Cc1ccc3c(c1C2=O)CCCC3 (stereo not drawn) | 41.4 µM (inactive) | 12.6 µM (inactive) | 35.2 µM (inactive) | 8.05 µM (inactive) | > 100 µM (inactive) | 9.27 µM (inactive) | – | 5.96 µM (inactive) | 3.91 µM (inactive) | – | 6.32 µM (inactive) | 7.83 µM (inactive) | 21.7 µM (inactive) | 4.35 µM (inactive) | 0.491 µM (active) | > 100 µM (inactive) | 7.85 µM (inactive) | > 100 µM (inactive) | 23.7 µM (inactive) | > 100 µM (inactive)
10 | Br[C@@H]1[C@H]2c3nc4ccccc4nc3[C@@H]1C[C@H]2Br | 51.4 µM (inactive) | 76.9 µM (inactive) | 69.2 µM (inactive) | 58.9 µM (inactive) | – | 41.4 µM (inactive) | 58.3 µM (inactive) | 74.3 µM (inactive) | 64.6 µM (inactive) | 41.2 µM (inactive) | > 100 µM (inactive) | > 100 µM (inactive) | 91.2 µM (inactive) | 31.7 µM (inactive) | > 100 µM (inactive) | 83.6 µM (inactive) | > 100 µM (inactive) | > 100 µM (inactive) | 46.2 µM (inactive) | 86.1 µM (inactive)
11 | Cc1ccc(CS(=O)(=O)C/N=C2\Sc3ccccc3N\C2=C/C(=O)c2ccc(Cl)cc2)cc1 | > 10 µM (inactive) | > 10 µM (inactive) | > 10 µM (inactive) | > 10 µM (inactive) | – | – | > 10 µM (inactive) | > 10 µM (inactive) | – | > 10 µM (inactive) | > 10 µM (inactive) | > 10 µM (inactive) | > 10 µM (inactive) | 6.08 µM (inactive) | 9.55 µM (inactive) | > 10 µM (inactive) | > 10 µM (inactive) | > 10 µM (inactive) | – | –
12 | Cc1cn(C2CC(N=[N+]=[N-])C(CO[Si](C)(C)C(C)(C)C)O2)c(=O)[nH]c1=O (stereo not drawn) | 15.8 µM (inactive) | 16.9 µM (inactive) | 18.1 µM (inactive) | 27.2 µM (inactive) | 15.2 µM (inactive) | 16.6 µM (inactive) | 21.1 µM (inactive) | 17.3 µM (inactive) | – | – | 16.9 µM (inactive) | 21.8 µM (inactive) | 18 µM (inactive) | 26.7 µM (inactive) | 17.6 µM (inactive) | 21.6 µM (inactive) | 15.6 µM (inactive) | 18.4 µM (inactive) | 16.1 µM (inactive) | 23.5 µM (inactive)
13 | C=CCOc1ccc(C2C(C(=O)OCC)C(=O)CC(C)(O)C2C(=O)OCC)cc1OC (stereo not drawn) | > 100 µM (inactive) | > 100 µM (inactive) | > 100 µM (inactive) | > 100 µM (inactive) | > 100 µM (inactive) | > 100 µM (inactive) | > 100 µM (inactive) | > 100 µM (inactive) | > 100 µM (inactive) | > 100 µM (inactive) | > 100 µM (inactive) | > 100 µM (inactive) | > 100 µM (inactive) | > 100 µM (inactive) | > 100 µM (inactive) | > 100 µM (inactive) | > 100 µM (inactive) | – | > 100 µM (inactive) | > 100 µM (inactive)
14 | Cc1ccc2c(=O)c3cccc(CC(=O)O)c3[nH]c2c1C | > 100 µM (inactive) | 57.8 µM (inactive) | 27.9 µM (inactive) | > 100 µM (inactive) | – | > 100 µM (inactive) | > 100 µM (inactive) | > 100 µM (inactive) | > 100 µM (inactive) | > 100 µM (inactive) | > 100 µM (inactive) | > 100 µM (inactive) | 65.6 µM (inactive) | > 100 µM (inactive) | 72.1 µM (inactive) | > 100 µM (inactive) | > 100 µM (inactive) | > 100 µM (inactive) | > 100 µM (inactive) | > 100 µM (inactive)
15 | CC1=NN(c2nc(N)nc(CSc3cc(Cl)c(C)cc3S(N)(=O)=O)n2)C(C)(C)C1 | > 10 µM (inactive) | > 10 µM (inactive) | > 10 µM (inactive) | > 10 µM (inactive) | > 10 µM (inactive) | 0.543 µM (active) | > 10 µM (inactive) | > 10 µM (inactive) | > 10 µM (inactive) | – | > 10 µM (inactive) | > 10 µM (inactive) | > 10 µM (inactive) | > 10 µM (inactive) | > 10 µM (inactive) | > 10 µM (inactive) | > 10 µM (inactive) | > 10 µM (inactive) | > 10 µM (inactive) | > 10 µM (inactive)
